Reference: patent US20210308101A1, “METHODS OF TREATING FIBROMYALGIA” (Aptinyx Inc., priority 2019, published 2021)
Entries after “also recorded” stand apart in the source; their conditions may differ.

What was measured:
Type in all cases: in vivo, human
[1] = test system: subjects with fibromyalgia; assay: Revised Fibromyalgia Impact Questionnaire (FIQR)
From the text: As used herein, “FIQR” is Revised Fibromyalgia Impact Questionnaire. The FIQR is an updated version of the Fibromyalgia Impact Questionnaire which is an assessment of the physical functioning, work status, depression, anxiety, morning tiredness, pain, stiffness, fatigue and wellbeing in fibromyalgia subjects measured over the period of 1 week. The FIQR differs from the FIQ in that it includes questions on memory, tenderness, balance, and environmental sensitivity as well as modified function questions. All 21 FIQR questions are based on an 11-point numerical rating scale/Likert scale ranging from 0 to 10. Lower scores represent a better quality of life. The FIQR is made of the 3 following domains: • Function Domain Score • 9 Questions with Scores Ranging from 0 (No Difficulty) to 10 (Very Difficult) • Sum of those 9 Questions make up the Function Domain Score Ranging from 0 to 90 • Missing Data Imputation Factor: If at least 5 questions were answered, the Function Domain Score was multiplied by 9/(number of questions answered) and rounded off to the nearest whole number. Otherwise, the score was set to missing. • Overall Impact Domain Score • 2 Questions with Scores Ranging from 0 (Never) to 10 (Always) • Sum of those 2 Questions make up the Overall Impact Domain Score Ranging from 0 to 20 • Missing Data Imputation Factor: If 1 question was missing, the Overall Impact Domain Score was multiplied by 2. Otherwise, the score was set to missing. • Symptoms Domain Score • 10 Questions with Scores Ranging from 0 to 10 with Different Categorical Reponses Sum of those 10 Questions make up the Symptoms Domain Score Ranging from 0 to 100 Missing Data Imputation Factor: If at least 5 questions were answered, the Function Domain Score was multiplied by 10/(number of questions answered) and rounded off to the nearest whole number. Otherwise, the score was set to missing.
If all 3 domain scores could be calculated, the Total FIQR Score ranged from 0 to 100 and was calculated based on the normalization domain scores: (Function Domain Score/3)+Overall Impact Domain Score+(Symptoms Domain Score/2). Otherwise, the Total FIQR Score was set to missing. The Function and Symptoms domain scores collected on the CRF applied the normalization factors stated above (Function Domain Score/3 and Symptoms Domain Score/2) in order to calculate the Total FIQR Score on the CRF. As a result, the Function and Symptoms domain scores were derived by the definition stated above in the SAP as opposed to using the collected values on the CRF. The FIQR assessment was collected and analyzed at visits Screening, Day 1, Week 2, Week 4, Week 6, and Follow-up (Week 7). The observed total and domain scores, changes from baseline, and changes from treatment periods were summarized using descriptive statistics. Additionally, the treatment group comparisons were analyzed using the paired ttest and nonparametric Wilcoxon signed-rank test. All FIQR data collected and the calculated total and domain scores at each visit were presented in a subject listing.

[2] = test system: dorsal anterior cingulate cortex Glx; assay: 1H-MRS Glx levels, dorsal anterior cingulate cortex
From the text: As used herein, “^1H-MRS” is Magnetic Resonance Spectroscopy (1H-MRS) or Proton Magnetic Resonance Spectroscopy. Proton magnetic resonance spectroscopy is a noninvasive imaging technique that allows in vivo determination of biochemical parameters within brain tissue. Proton magnetic resonance spectroscopy data were used to collect brain neurotransmitter levels of Glu and combined glutamate+glutamine metabolites (Glx). This method provides metrics amenable to longitudinal studies such as those proposed here. High-resolution anatomical scans can isolate identical brain structures within individuals over time, thus minimizing error that otherwise would occur because of slight differences in voxel location from 1 evaluation to the next. Previous ^1H-MRS studies have utilized this approach to examine changes in the levels of CNS metabolites in test-retest studies of drug effects. […]
Raw data from each single-voxel spectroscopy sequence underwent manual post-processing using ^1H-MRS software (LCModel; Stephen Provencher, Oakville, Ontario, Canada). […] Glx values were calculated as an absolute concentration using the water signal for normalization or as a ratio to creatine. […]
The analysis visit comparisons stated were analyzed using paired t-tests and/or nonparametric Wilcoxon signed-rank tests of Glx levels at each voxel independently in SPSS. […]

posterior insula Glx = assay: 1H-MRS Glx levels, posterior insula (pre and post evoked cuff pain); details: for pain-evoked increase in posterior insula Glx at the visit: p>0.60; for posterior insula pain-related Glx/tCr level increases: 11 patients; for posterior insula evoked pain Glx levels compared to the placebo visit: p<0.10, FIG. 15
From the text: As used herein, “^1H-MRS” is Magnetic Resonance Spectroscopy (1H-MRS) or Proton Magnetic Resonance Spectroscopy. Proton magnetic resonance spectroscopy is a noninvasive imaging technique that allows in vivo determination of biochemical parameters within brain tissue. Proton magnetic resonance spectroscopy data were used to collect brain neurotransmitter levels of Glu and combined glutamate+glutamine metabolites (Glx). This method provides metrics amenable to longitudinal studies such as those proposed here. High-resolution anatomical scans can isolate identical brain structures within individuals over time, thus minimizing error that otherwise would occur because of slight differences in voxel location from 1 evaluation to the next. Previous ^1H-MRS studies have utilized this approach to examine changes in the levels of CNS metabolites in test-retest studies of drug effects. This study expanded the investigation to a variety of regions throughout the brain including: • Right anterior insula • Right posterior insula (This region was acquired twice: once prior to and once following evoked cuff pain. All other voxels were acquired once.) • Perigenual/rostral anterior cingulate cortex (midline) • Dorsal/anterior cingulate cortex (midline) • Precuneus (midline) • Medial prefrontal cortex • Thalamus (optional if time permitted)
Proton magnetic resonance spectroscopy data were collected using the same scanners used for fMRI. Voxels of interest were placed in each of the aforementioned brain regions to obtain levels of Glu and Glx.
Raw data from each single-voxel spectroscopy sequence underwent manual post-processing using ^1H-MRS software (LCModel; Stephen Provencher, Oakville, Ontario, Canada). LCModel uses a linear combination of individual spectra obtained from pure molecular species to fit the experimental spectra. Glx values were calculated as an absolute concentration using the water signal for normalization or as a ratio to creatine. Correction for cerebral spinal fluid (CSF) volume, which can dilute ^1H-MRS-derived Glx values, was also performed. For this we used Voxel Based Morphometry, a toolbox that operates within SPM. Metabolite concentrations were excluded if the Cramér-Rao bounds were greater than 20%.
The analysis visit comparisons stated were analyzed using paired t-tests and/or nonparametric Wilcoxon signed-rank tests of Glx levels at each voxel independently in SPSS. The primary analyses were comparisons between posterior insula and anterior cingulate cortex Glx levels following placebo and NYX-2925 (either 20 or 200 mg) administration.

[3] = Week 2 (placebo) to Week 4 (NYX-2925 20 mg)
[4] = Week 2 (placebo) to Week 6 (NYX-2925 200 mg)

For `CC(C)C(=O)N1CCC[C@]12CN([C@H](C(N)=O)[C@@H](C)O)C2=O` [NYX-2925, (2S, 3R)-3-hydroxy-2-((R)-5-isobutyryl-1-oxo-2,5-diazaspiro[3.4]octan-2-yl)butanamide], the “total FIQR score, change from baseline” value ([1]; NYX-2925 20 mg) was “reductions from baseline”, the “FIQR Symptoms Domain score, mean change” value [1, 3] was −2.1 and the “FIQR Total score, mean change” value [1, 3] was −0.5. For the same molecule, the “FIQR Function Domain score, mean change” value [1, 4] was −3.7, the “FIQR Overall Impact Domain score, mean change” value [1, 4] was −2.0 and the “FIQR Total score, mean change” value ([1]; Week 2 (placebo) to Week 6 (NYX-2925 200 mg), p=0.0135) was −6.3. For the same molecule, the “FIQR Symptoms Domain score, mean change” value ([1]; Week 2 (placebo) to Week 6 (NYX-2925 200 mg), p=0.0207) was −6.2, the “Total FIQR score, reduction from baseline” value ([1]; week six, after four weeks of NYX-2925, scale 0 to 100, n=21) was 9.6 point and the “dACC resting Glx (concentrations and ratios to creatine)” value ([2]; NYX-2925 20 mg vs placebo, p<0.05) was “statistically significant reductions of Glx levels; also recorded: decreased resting Glx”. The “dACC mean Glx levels” value ([2]; NYX-2925 200 mg vs placebo) was “No significant decrease; also recorded: No effect”, the “resting posterior insula Glx levels following evoked pain” value (posterior insula Glx; FIG. 5: 20 mg vs placebo, 19 patients, p=0.032) was “significantly reduce resting posterior insula Glx levels” and the “pain-evoked increase in posterior insula Glx at the visit” value (posterior insula Glx; NYX-2925 20 mg visit) was “not significant”. For the same molecule, the “posterior insula pain-related Glx/tCr level increases” value (posterior insula Glx; NYX-2925 20 mg vs placebo, FIG. 3A, p<0.05) was “reduction in pain related Glx/tCr level increases”, the “posterior insula evoked pain Glx levels compared to the placebo visit” value (posterior insula Glx; NYX-2925 20 mg) was “trend for NYX-2925 20 mg and 200 mg to reduce evoked pain Glx levels” and the “posterior insula Glx levels post-pain (ratios to creatine only)” value (posterior insula Glx; NYX-2925 200 mg compared to placebo, p<0.05) was “significant decrease in Glx levels”. The “pain-evoked increase in posterior insula Glx at the visit” value (posterior insula Glx; NYX-2925 200 mg visit) was “not significant”, the “posterior insula pain-related Glx/tCr level increases” value (posterior insula Glx; NYX-2925 200 mg vs placebo, FIG. 3B, p<0.05) was “reduction in pain related Glx/tCr level increases” and the “posterior insula evoked pain Glx levels compared to the placebo visit” value (posterior insula Glx; NYX-2925 200 mg) was “trend for NYX-2925 20 mg and 200 mg to reduce evoked pain Glx levels”.
